This is an account of results in patent publication US20050209220A1, “Treatment of peripheral neuropathy” (priority 2004, published 2005).

The test system of this assay is diabetic patient with neuropathy of the lower extremities. In words: Case reports: diabetic patients with neuropathy / pain of the lower extremities. The class given is in vivo, human. On the procedure: 2. A diabetic patient with severe pains in their legs reported that it was very difficult for them to sleep with the pain. At first, they were instructed to take the one-half the regimen described in Example 1, that is 10 mgs of desipramine and 1 mg of fluphenazine at bedtime. […] 3. A diabetic patient with neuropathy of the lower extremities was prescribed 10 mgs of desipramine alone orally every twelve hours. […] 4. A diabetic patient with severe pain in the lower legs and feet was instructed to take 1 mg of fluphenazine hydrochloride orally every twelve hours beginning at bedtime. […] 5. A diabetic patient with severe lower extremity neuropathy manifested as pain in the lower legs and feet was instructed to take 2 mgs of fluphenazine hydrochloride orally every twelve hours beginning at bedtime.

Where a name gives a salt, the structure may show the parent alone.

As to `CNCCCN1c2ccccc2CCc2ccccc21` [desipramine], the patient-reported pain reduction entry (diabetic patient (Example 3), desipramine alone, 10 mgs orally every twelve hours (20 mgs/day)) is recorded as “lack of effectiveness in reducing pain” and the patient-reported pain reduction result (diabetic patient (Example 3), desipramine alone, higher dosage of 40 mgs per day) is reported as “lack of effectiveness in reducing pain”.
On to `OCCN1CCN(CCCN2c3ccccc3Sc3ccc(C(F)(F)F)cc32)CC1` [fluphenazine hydrochloride], for which the patient-reported pain reduction entry (diabetic patient (Example 4), fluphenazine hydrochloride alone, 1 mg orally every twelve hours, after two weeks) is reported as “somewhat of an improvement in pain reduction, but not complete elimination”; the patient-reported pain reduction result (diabetic patient (Example 5), fluphenazine hydrochloride alone, 2 mgs orally every twelve hours, after two weeks) is given as “somewhat of an improvement in pain reduction, but not complete elimination”; the patient-reported pain reduction result (diabetic patient (Example 5), fluphenazine hydrochloride alone, 4 mgs every twelve hours) is “substantial improvement in reducing the severity of pain”.
